Converted amounts (≈) assume the structure as drawn.
Legend:
Treponema hyodysenteriae = test: In vitro test against Treponema hyodysenteriae (MIC, MBC); assay type: cell-based; conditions: Brachyspira hyodysenteriae, lowest concentration in a dilution series where growth is inhibited, read-out: minimum inhibitory concentration
Description: D was tested in vitro against Treponema hyodysenteriae by a known method. The minimum inhibitory concentration (the lowest concentration of compound in a dilution series where growth is inhibited) was 0.1 mcg/ml. The minimum bactericidal concentration (the lowest concentration of compound in which no viable treponemes are observed upon dilution and subculture from the broth onto blood agar plates) was greater than 0.1 mcg/ml but less than 1 mcg/ml.

[1] = Acute toxicity in female mice; assay type: in vivo
Description: (§1) The compound was tested for acute toxicity by several modes of administration in four species, namely mice, rat, guinea pig, and rabbit. […] The results are given below in Tables 3, 4, 5 and 6.

[2] = Acute toxicity in the rat; assay type: in vivo; conditions: for Dead/Treated within 21 days / Body weight (m ± SEM) in g. start / Body weight (m ± SEM) in g. Termination: First Experiment; for Body weight (m ± SEM) in g. Termination: Student's t test: t 0.05
Description: as §1

[3] = Acute toxicity in the guinea pig by esophageal administration; assay type: in vivo
Description: as §1

[4] = Acute toxicity in the rabbit by esophageal administration; assay type: in vivo
Description: as §1

[5] = Subacute toxicity in the mouse; assay type: in vivo; conditions: for SGOT / SGPT: 24 hrs. after last dose
Description: In view of the favourable acute toxicity data, the compound was administered orally in sub-acute, but relatively large, doses to mice and rats for 15 days. Data were collected on the effects on death rate, weight, liver, and kidneys.

[6] = Subacute toxicity in female rats; assay type: in vivo, rat; conditions: 2 g/kg/day by gastric lavage for 21 days
[7] = Chronic toxicity in the female mouse; assay type: in vivo; conditions: for Dead/Treated / Body Weight in g (m ± SE) Start / Body Weight in g (m ± SE) Termination: gastric lavage, 18 weeks; for Fresh Organ-to-Body-Weight Ratio, Heart / Fresh Organ-to-Body-Weight Ratio, Kidneys / Fresh Organ-to-Body-Weight Ratio, Liver / Fresh Organ-to-Body-Weight Ratio, Lungs: m ± SE, 4 animals; for Blood Glucose / SGOT / SGPT: mean of 6 animals, 24 hours after last dose
Text: In view of the favourable sub-acute toxicity, the chronic toxicity in female mice was studied.

[8] = Teratogenetic study, mouse; assay type: in vivo; conditions: 250 mg/kg/day oral, 3rd to 13th days
Description: (§2) In view of the favourable results on chronic toxicity, a teratogenic study was conducted with male and female mice and rats.
a. Animal Species: Mouse, Male and female mice housed together for 10
Oral treatment from 3rd day to 13th days.

Teratogenetic study, rat = assay type: in vivo; conditions: 250 mg/kg/day oral, same conditions as mouse
Description: as §2
b. Animal Species. Rat. Same experimental conditions as with the mouse.

[9] = Acute toxicity by several modes of administration in four species; assay type: in vivo, and rabbit; conditions: mice, rat, guinea pig, rabbit
Description: as §1

[10] = Teratogenic study with male and female mice and rats; assay type: in vivo
Description: as §2

General safety statement = conditions: statement in the description
[11] = system: five strains of Vibrio cholerae; test: In vitro effect on five strains of Vibrio cholerae (summary)
[12] = Second Experiment, F, esophageal, 4000 mg/kg
[13] = Second Experiment, F, intraperitoneal, 500 mg/kg
[14] = Second Experiment, M, esophageal, 4000 mg/kg
[15] = Second Experiment, M, intraperitoneal, 500 mg/kg
[16] = 500 mg/kg/day by gastric lavage for 15 days
[17] = in adraganth gum, 1 g/kg/day for 15 days

## CCC(C)c1cnc(CC(C)C)c(=O)n1O [D, D-aspergillic acid]
Treponema hyodysenteriae
  MIC: 0.1 mg/L (≈ 0.446 µM)
[1]; endoperitoneal, 250 mg/kg
  Dead/Treated Animals after 7 days: 0/18
[1]; endoperitoneal, 500 mg/kg
  Dead/Treated Animals after 7 days: 6/12
[1]; endoperitoneal, 1000 mg/kg, 2 days
  Dead/Treated Animals after 2 days: 6/6
[1]; endoperitoneal, 1000 mg/kg
  Dead/Treated Animals after 7 days: 6/6
[1]; endoperitoneal, 2000 mg/kg, 1 day
  Dead/Treated Animals after 1 day: 6/6
[1]; endoperitoneal, 2000 mg/kg
  Dead/Treated Animals after 7 days: 6/6
[1]; esophageal, 1000 mg/kg
  Dead/Treated Animals after 7 days: 0/12
[1]; esophageal, 2000 mg/kg
  Dead/Treated Animals after 7 days: 0/12
[1]; esophageal, 4000 mg/kg, 4 days
  Dead/Treated Animals after 4 days: 1/12
[1]; esophageal, 4000 mg/kg
  Dead/Treated Animals after 7 days: 1/12
[2]; Cumulative data regardless of sex, esophageal, 4000 mg/kg
  Dead/Treated within 7 days: 0/16
[2]; Cumulative data regardless of sex, intraperitoneal, 500 mg/kg
  Dead/Treated within 7 days: 4/16
[2]; F, endoperitoneal, 500 mg/kg
  Dead/Treated within 21 days: 2/4
  Body weight (m ± SEM) in g. start: 206.2 ± 8.7 g
[2]; F, esophageal, 4000 mg/kg
  Dead/Treated within 21 days: 0/4
  Body weight (m ± SEM) in g. start: 201.2 ± 4.2 g
  Body weight (m ± SEM) in g. Termination: 238.2 ± 12.1 g
[2]; M, endoperitoneal, 500 mg/kg
  Dead/Treated within 21 days: 1/4
  Body weight (m ± SEM) in g. start: 234.0 ± 6.2 g
  Body weight (m ± SEM) in g. Termination: 314.3 ± 10.3 g
[2]; M, esophageal, 4000 mg/kg
  Dead/Treated within 21 days: 0/4
  Body weight (m ± SEM) in g. start: 234.5 ± 13.8 g
  Body weight (m ± SEM) in g. Termination: 288.7 ± 13.8 g
[2]; [12]
  Dead/Treated within 7 days: 0/4
  Body weight (±SE) in g. start: 252.0 ± 16.6 g
  Body weight (±SE) in g. Termination: 253.5 ± 12.1 g
[2]; [13]
  Dead/Treated within 7 days: 0/4
  Body weight (±SE) in g. start: 232.5 ± 5.9 g
  Body weight (±SE) in g. Termination: 218.2 ± 7.0 g
[2]; [14]
  Dead/Treated within 7 days: 0/4
  Body weight (±SE) in g. start: 222.5 ± 6.2 g
  Body weight (±SE) in g. Termination: 231.7 ± 15.7 g
[2]; [15]
  Dead/Treated within 7 days: 2/4
  Body weight (±SE) in g. start: 226.2 ± 6.8 g
[3]; 500 mg/kg
  Dead/Treated within 21 days: 0/4
[3]; 1000 mg/kg
  Dead/Treated within 21 days: 1/4
[3]; 2000 mg/kg
  Dead/Treated within 21 days: 5/6
[3]; 4000 mg/kg
  Dead/Treated within 21 days: 6/6
[4]; 500 mg/kg
  Dead/Treated within 7 days: 0/2
[4]; 500 mg/kg, start
  Body Weight in g. start: 2000 to 2100 g
[4]; 1000 mg/kg
  Dead/Treated within 7 days: 0/4
[4]; 1000 mg/kg, start
  Body Weight (m ± SE) in g. start: 2037 ± 104.3 g
[4]; 1000 mg/kg, termination
  Body Weight (m ± SE) in g. Termination: 1922.5 ± 71.5 g
[4]; 2000 mg/kg
  Dead/Treated within 7 days: 0/2
[4]; 2000 mg/kg, within 4 days
  dead out of treated animals, within 4 days (footnote): two dead out of seven treated animals
[5]; [16]
  % Body Weight Change: -8.1 ± 3.9%
  Dead/Treated: 0/10
  Fresh Organ-to-Body Weight Ratio, Kidneys: 1.5 ± 0.1
  Fresh Organ-to-Body Weight Ratio, Liver: 5.9 ± 0.3
[5]; in H2O, 1 g/kg/day for 15 days
  % Body Weight Change: 18.5 ± 0.75%
  Dead/Treated: 2/12
[5]; [17]
  % Body Weight Change: 16.27 ± 1.31%
  Dead/Treated: 3/12
[5]; in adraganth gum
  SGOT: 132 Units/ml
  SGPT: 10 Units/ml
[5]; in water
  SGOT: 124 Units/ml
  SGPT: 9 Units/ml
[6]; 5 animals, NS
  Average Percent Weight of Fresh Organs, Kidneys: 1.04 ± 0.03%
  Average Percent Weight of Fresh Organs, Liver: 4.54 ± 0.10%
  Average Percent Weight of Fresh Organs, Lung: 1.07 ± 0.09%
[6]; start
  Body Weight in g (m ± SE) Start: 204.1 ± 2.0 g
[6]; termination
  Body Weight in g (m ± SE) Termination: 210.6 ± 9.6 g
[6]; D, death caused by a mistake in esophagus incannulation
  Dead/Treated: 1/6
[7]; 250 mg/kg/day
  Urine Amount excreted by 6 animals in 6 hours: 6.5 mL
  Dead/Treated: 0/10
  Body Weight in g (m ± SE) Start: 27.3 ± 0.5 g
  Body Weight in g (m ± SE) Termination: 26.7 ± 0.7 g
  Fresh Organ-to-Body-Weight Ratio, Heart: 0.60 ± 0.08
  Fresh Organ-to-Body-Weight Ratio, Kidneys: 0.87 ± 0.08
  Fresh Organ-to-Body-Weight Ratio, Liver: 4.57 ± 0.25
  Fresh Organ-to-Body-Weight Ratio, Lungs: 0.731 ± 0.035
  Blood Glucose: 1.10
  SGOT: 118 Units/ml
  SGPT: 5 Units/ml
[7]; 500 mg/kg/day
  Urine Amount excreted by 6 animals in 6 hours: 7 mL
  Dead/Treated: 2/10
  Body Weight in g (m ± SE) Start: 30.4 ± 0.9 g
  Body Weight in g (m ± SE) Termination: 30.0 ± 0.7 g
  Fresh Organ-to-Body-Weight Ratio, Heart: 0.47 ± 0.02
  Fresh Organ-to-Body-Weight Ratio, Kidneys: 1.07 ± 0.04
  Fresh Organ-to-Body-Weight Ratio, Liver: 4.66 ± 0.91
  Fresh Organ-to-Body-Weight Ratio, Lungs: 1.011 ± 0.110
  Blood Glucose: 1.06
  SGOT: 159 Units/ml
  SGPT: 6 Units/ml
[8]
  Body Weight of Foetuses in g (m ± SE): 1.42 ± 0.05 g
  No. of Foetuses with malformations: 0
  No. of living Foetuses per Delivery (m ± SE): 10.3 ± 0.6
  Pregnant/Treated Animals: 3/10
Teratogenetic study, rat
  Body Weight of Foetuses in g (m ± SE): 7.08 ± 0.19 g
  No. of Foetuses with malformations: 0
  No. of living Foetuses per Delivery (m ± SE): 10.8 ± 0.86
  Pregnant/Treated Animals: 7/10
[9]
  acute toxicity: low order of toxicity
[10]
  number of young delivered live at birth: comparable with controls
[10]; either group
  malformations: No malformations
General safety statement
  nitrogenic (so in the source): not nitrogenic
[11]; 10 mcg/ml, after 48 hours
  growth of 3 of the organisms: no growth
[11]; 100 mcg/ml
  growth of the remaining two organisms: only marginal growth

Source: patent publication US4292318A, “Product and method for combating swine dysentery” (priority 1979, dated 1981)
